{"source": "paper PMC5389830", "about": "“Longitudinal monitoring of Gaussia and Nano luciferase activities to concurrently assess ER calcium homeostasis and ER stress in vivo” (PLoS ONE, 2017)", "target": "T1, GLuc (Gaussia luciferase) (Gaussia princeps (in: crustaceans), UniProt Q9BLZ2)", "T1 construct": "secreted GLuc without SERCaMP peptide, in culture medium of transfected SH-SY5Y cells", "T1 sequence (Q9BLZ2 18-185)": "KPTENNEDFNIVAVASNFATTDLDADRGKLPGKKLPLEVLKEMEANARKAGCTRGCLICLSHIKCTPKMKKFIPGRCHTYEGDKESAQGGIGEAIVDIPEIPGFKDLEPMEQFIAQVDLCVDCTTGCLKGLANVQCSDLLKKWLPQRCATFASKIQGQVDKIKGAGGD", "assay": "luminescence, culture medium of transfected SH-SY5Y cells", "type": "biochemical", "conditions": "8 μM coelenterazine; flash kinetics", "data": [{"molecule": "Oc1ccc(Cc2nc3c(Cc4ccccc4)nc(-c4ccc(O)cc4)cn3c2O)cc1", "note": "[coelenterazine]", "values": [{"measurement": "luminescence, culture medium of transfected SH-SY5Y cells", "value": "GLuc and secNLuc both showed activity towards CTZ, with GLuc exhibiting flash kinetics"}]}]}
